In patent US9994518B2, “Alpha-7 nicotinic acetylcholine receptor modulators and uses thereof” (MERCK SHARP & DOHME CORP., priority 2014, dated 2018):

The compounds below were run against T1, α7 nAChR (rat α7/CHO cells) (Rattus norvegicus, UniProt Q05941) (assay: Evaluation of modulators of α7 nAChRs using the IonFlux HT automated patch clamp system (potentiation of EC20 ACh-evoked currents)). Conditions: percent potentiation of ACh (EC20, approx. 60 μM) response in α7/CHO cells; 6-point dose response 0.03-10 μM; whole cell patch clamp.
T1 construct: expressed in transfected cells; host or cells: CHO cells (α7/CHO)
Type: cell-based
Description: Evaluation of Modulators of α7 nAChRs Using the IonFlux^HT Automated Patch Clamp System
Acetylcholine was freshly prepared for each plate run and used at an EC20 concentration (approximately 60 μM for rat α7/CHO) to induce α7 nAChR currents on the IonFlux^HT. To prepare the ACh solution for a single plate, 6 μl of the 100 mM ACh stock was diluted into 10 ml of 0.3% DMSO/external solution
Test compounds were prepared for a 6-point dose response from 0.03-10 μM. Working stocks were prepared from serial dilutions of 10 mM DMSO stock solutions to give a final DMSO concentration of 0.3%. 80 μl of the final concentration of each compound was added to the appropriate wells in an IonFlux^HT assay plate.
2×T175 flasks of α7/CHO cells (˜60-70% confluent) were washed twice with PBS and trypsinized (2 ml) for 3.5 minutes at 37° C./5% CO2. Cells were collected in F-12K complete media, counted and the number required for the assay was calculated, for example, 2×10^6 cells in a final volume of 670 μl of external solution were required to load one zone (one quarter) of an IonFlux^HT assay plate. The correct number of cells was pelleted by centrifuge, the supernatant was discarded and the cell pellet was resuspend in external solution at the required concentration so that cells were added in a volume of 80 μl per well to the IonFlux^HT assay plate.
Calculation of the Effect of Compounds on ACh Mediated Currents in α7 nAChRs:
The effect of test compounds on EC20 ACh-evoked currents was calculated by the formula: […]
The rinse protocol was the initial step in preparation of the IonFlux^HT plate. 80 μl of MilliQ water was added to every well (except Out wells) and the IonFlux^HT assay plate was run through the water rinse protocol on the machine. At the end of the run, the water was discarded from the wells. This action was repeated twice.
Briefly, to prepare the plate for the assay aliquots of cells, compounds and internal and external solutions were added to wells of the prepared IonFlux^HT plate (80 μl/well) (solutions made to manufacturer's specifications). Automated whole cell patch-clamp recordings were made using the standard IonFlux^HT single application protocol. Vacuum was held at 6 psi/hg throughout the experiment and membrane potential was held at −80 mV for 35 sec and then at −60 mV during data acquisition. Two ACh (EC20) pulses were applied at the beginning of the assay, 90 seconds apart, to provide an ACh baseline response then cells were perfused with modulators for 89 sec before ACh (EC20) was applied for 1 s. The calculation of percent potentiation of the acetylcholine response for each well was performed by the data analysis software supplied with the IonFlux^HT.
The following compounds were tested in accordance with the above-procedure for activity and the EC50 values determined are reported: […]

T1 sequence (Q05941 23-502): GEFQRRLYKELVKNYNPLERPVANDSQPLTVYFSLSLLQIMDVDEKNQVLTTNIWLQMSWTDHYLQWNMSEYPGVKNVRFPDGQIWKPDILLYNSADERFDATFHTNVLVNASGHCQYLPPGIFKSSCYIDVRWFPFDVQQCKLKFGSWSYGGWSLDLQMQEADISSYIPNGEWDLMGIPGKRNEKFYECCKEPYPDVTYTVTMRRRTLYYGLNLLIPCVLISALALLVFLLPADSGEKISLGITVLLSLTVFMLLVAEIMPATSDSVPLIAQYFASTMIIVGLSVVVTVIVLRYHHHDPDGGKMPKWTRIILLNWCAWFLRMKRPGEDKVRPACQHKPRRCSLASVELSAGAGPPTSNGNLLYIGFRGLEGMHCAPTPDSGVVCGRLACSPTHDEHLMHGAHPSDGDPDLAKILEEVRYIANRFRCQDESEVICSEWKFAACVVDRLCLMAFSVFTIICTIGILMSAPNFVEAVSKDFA

SMILES | EC50 [nM]
COc1ccc(Cl)cc1OC[C@H]1[C@H](c2ccc(NS(C)(=O)=O)cc2)C1(C)C (single isomer, unassigned) [Exp. 5] | 193
COc1ccc(OC[C@H]2[C@H](c3ccc(NS(C)(=O)=O)cc3)C2(C)C)cn1 (single isomer, unassigned) [Exp. 6] | 596
Cc1cc(F)ccc1OC[C@H]1[C@H](c2ccc(NS(C)(=O)=O)cc2)C1(C)C (single isomer, unassigned) [Exp. 7] | 1050
Cc1cc(F)ccc1OC[C@H]1[C@H](c2ccc(NS(N)(=O)=O)cc2)C1(C)C (single isomer, unassigned) [Exp. 8] | 517
Cc1ccc(F)cc1OC[C@H]1[C@H](c2ccc(NS(N)(=O)=O)cc2)C1(C)C (single isomer, unassigned) [Exp. 9] | 1750
CC1(C)[C@@H](COc2ccc(F)cc2C(F)(F)F)[C@@H]1c1ccc(S(N)(=O)=O)cc1 (single isomer, unassigned) [Exp. 10] | 429
COc1ccc(Cl)cc1OC[C@H]1[C@H](c2ccc(S(N)(=O)=O)cc2)C1(C)C (single isomer, unassigned) [Exp. 11] | 3640
COc1ccc(Cl)cc1OC[C@@H]1[C@@H](c2ccc(S(N)(=O)=O)cc2)C1(C)C (single isomer, unassigned) [Exp. 12] | 1350
Cc1ccc(SC[C@H]2[C@H](c3ccc(S(N)(=O)=O)cc3)C2(C)C)cc1 (single isomer, unassigned) [Exp. 13] | 70
COc1ccc(Cl)cc1SC[C@@H]1[C@@H](c2ccc(S(N)(=O)=O)cc2)C1(C)C (single isomer, unassigned) [Exp. 14] | 452
Cc1ccc(SC[C@@H]2[C@@H](c3ccc(S(N)(=O)=O)cc3)C2(C)C)cc1 (single isomer, unassigned) [Exp. 15] | 75
COc1ccc(Cl)cc1SC[C@H]1[C@H](c2ccc(S(N)(=O)=O)cc2)C1(C)C (single isomer, unassigned) [Exp. 16] | 125
COc1ccc(OC[C@H]2[C@H](c3ccc(NS(N)(=O)=O)cc3)C2(C)C)cn1 (single isomer, unassigned) [Exp. 17] | 4360
Cc1ccc(OC[C@H]2[C@H](c3ccc(NS(N)(=O)=O)cc3)C2(C)C)cn1 (single isomer, unassigned) [Exp. 18] | 2300
Cc1ncccc1OC[C@H]1[C@H](c2ccc(NS(C)(=O)=O)cc2)C1(C)C (single isomer, unassigned) [Exp. 19] | 350
Cc1ncccc1OC[C@H]1[C@H](c2ccc(NS(N)(=O)=O)cc2)C1(C)C (single isomer, unassigned) [Exp. 20] | 3300
COc1ccc(OC[C@@H]2[C@@H](c3ccc(S(N)(=O)=O)cc3)C2(C)C)c(OC)n1 (single isomer, unassigned) [Exp. 21] | 3880
CC1(C)[C@H](COc2cc(F)ccc2OC(F)F)[C@H]1c1ccc(S(N)(=O)=O)cc1 (single isomer, unassigned) [Exp. 22] | 743
COc1cc(Cl)ccc1OC[C@H]1[C@H](c2ccc(NS(N)(=O)=O)cc2)C1(C)C (single isomer, unassigned) [Exp. 23] | 546
COc1cc(F)ccc1OC[C@H]1[C@H](c2ccc(NS(N)(=O)=O)cc2)C1(C)C (single isomer, unassigned) [Exp. 24] | 906
CC1(C)[C@@H](COc2cccnc2)[C@@H]1c1ccc(S(N)(=O)=O)cc1 (single isomer, unassigned) [Exp. 25] | 4160
COc1ccc(OC[C@H]2[C@H](c3ccc(S(N)(=O)=O)cc3)C2(C)C)c(OC)n1 (single isomer, unassigned) [Exp. 26] | 606
Cc1ccc(OC[C@@H]2[C@@H](c3ccc(S(N)(=O)=O)cc3)C2(C)C)cn1 (single isomer, unassigned) [Exp. 27] | 3970
CC1(C)[C@H](COc2ccc(F)cc2C#N)[C@H]1c1ccc(S(N)(=O)=O)cc1 (single isomer, unassigned) [Exp. 28] | 3100
COc1cc(F)ccc1OC[C@@H]1[C@@H](c2ccc(S(N)(=O)=O)cc2)C1(C)C (single isomer, unassigned) [Exp. 29] | 1240
COc1cc(F)ccc1OC[C@H]1[C@H](c2ccc(S(N)(=O)=O)cc2)C1(C)C (single isomer, unassigned) [Exp. 30] | 2520

SMILES | EC50 [nM]
Cc1cc(F)ccc1OC[C@H]1[C@H](c2ccc(S(N)(=O)=O)cc2)C1(C)C (single isomer, unassigned) [Exp. 31] | 200
CC1(C)[C@@H](COc2ccc(F)cc2C#N)[C@@H]1c1ccc(S(N)(=O)=O)cc1 (single isomer, unassigned) [Exp. 32] | 811
Cc1ccc(OC[C@H]2[C@H](c3ccc(S(N)(=O)=O)cc3)C2(C)C)cn1 (single isomer, unassigned) [Exp. 33] | 546
Cc1ncccc1OC[C@H]1[C@H](c2ccc(S(N)(=O)=O)cc2)C1(C)C (single isomer, unassigned) [Exp. 34] | 1620
Cc1cc(F)ccc1OC[C@@H]1[C@@H](c2ccc(S(N)(=O)=O)cc2)C1(C)C (single isomer, unassigned) [Exp. 35] | 395
COc1ccc(F)cc1OC[C@H]1[C@H](c2ccc(S(N)(=O)=O)cc2)C1(C)C (single isomer, unassigned) [Exp. 36] | 164
N#Cc1cc(F)ccc1OC[C@@H]1C[C@H]1c1ccc(S(N)(=O)=O)cc1 (single isomer, unassigned) [Exp. 37] | 6000
NS(=O)(=O)c1ccc([C@@H]2C[C@H]2COc2ccc(F)cc2C(F)(F)F)cc1 (single isomer, unassigned) [Exp. 38] | 1140
COc1ccc(OC[C@@H]2C[C@H]2c2ccc(S(N)(=O)=O)cc2)c(OC)n1 (single isomer, unassigned) [Exp. 39] | 5360
COc1ccc(Cl)cc1OC[C@@H]1C[C@H]1c1ccc(S(N)(=O)=O)cc1 (single isomer, unassigned) [Exp. 40] | 1060
COc1cc(F)ccc1OC[C@@H]1C[C@H]1c1ccc(S(N)(=O)=O)cc1 (single isomer, unassigned) [Exp. 41] | 2590
CC1(C)[C@H](COc2ccccc2OC(F)F)[C@H]1c1ccc(S(N)(=O)=O)cc1 (single isomer, unassigned) [Exp. 42] | 625
COc1ccc(F)cc1OC[C@@H]1[C@@H](c2ccc(S(N)(=O)=O)cc2)C1(C)C (single isomer, unassigned) [Exp. 43] | 1560
COc1cc(F)ccc1OC[C@H]1C[C@@H]1c1ccc(S(N)(=O)=O)cc1 (single isomer, unassigned) [Exp. 44] | 2940
N#Cc1cc(F)ccc1OC[C@H]1C[C@@H]1c1ccc(S(N)(=O)=O)cc1 (single isomer, unassigned) [Exp. 45] | 2510
NS(=O)(=O)c1ccc([C@H]2C[C@@H]2COc2ccc(F)cc2C(F)(F)F)cc1 (single isomer, unassigned) [Exp. 46] | 701
COc1ccc(Cl)cc1OC[C@H]1C[C@@H]1c1ccc(S(N)(=O)=O)cc1 (single isomer, unassigned) [Exp. 47] | 3700
COc1ccccc1CC[C@@H]1[C@@H](c2ccc(S(N)(=O)=O)cc2)C1(C)C (single isomer, unassigned) [Exp. 48] | 612
COc1ccc(Cl)cc1CC[C@@H]1[C@@H](c2ccc(S(N)(=O)=O)cc2)C12CCCC2 (single isomer, unassigned) [Exp. 49] | 64
COc1ccc(Cl)cc1CC[C@H]1[C@H](c2ccc(S(N)(=O)=O)cc2)C12CCCC2 (single isomer, unassigned) [Exp. 50] | 190
COc1ccc(Cl)cc1CC[C@H]1C[C@@H]1c1ccc(S(N)(=O)=O)cc1 (single isomer, unassigned) [Exp. 51] | 626
COc1ccc(Cl)cc1CC[C@H]1[C@H](c2ccc(S(N)(=O)=O)cc2)C1(C)C (single isomer, unassigned) [Exp. 52] | 54
COc1ccc(Cl)cc1OC[C@@H]1C[C@@H]1c1ccc(S(N)(=O)=O)cc1 (single isomer, unassigned) [Exp. 53] | 2190
COc1ccc(Cl)cc1CC[C@@H]1[C@@H](c2ccc(S(N)(=O)=O)cc2)C1(C)C (single isomer, unassigned) [Exp. 54] | 124
CC1(C)[C@H](COc2ccc(Cl)cn2)[C@H]1c1ccc(S(N)(=O)=O)cc1 (single isomer, unassigned) [Exp. 55] | 1470
